# Laboratory results published in US10239832B2, “N-(1-hydroxy-3-(pyrrolidinyl)propan-2-yl)pyrrolidine-3-carboxamide derivatives as glucosylceramide synthase inhibitors” (BIOMARIN PHARMACEUTICAL INC., priority 2013, dated 2019).
# Molecular target: T1, GCS (Canis lupus familiaris, UniProt A0A8I3MXG6)
# T1 construct: endogenous in cells; host or cells: MDCK (Madin-Darby canine kidney) cells, whole-cell lysate
# T1 sequence (A0A8I3MXG6 1-394): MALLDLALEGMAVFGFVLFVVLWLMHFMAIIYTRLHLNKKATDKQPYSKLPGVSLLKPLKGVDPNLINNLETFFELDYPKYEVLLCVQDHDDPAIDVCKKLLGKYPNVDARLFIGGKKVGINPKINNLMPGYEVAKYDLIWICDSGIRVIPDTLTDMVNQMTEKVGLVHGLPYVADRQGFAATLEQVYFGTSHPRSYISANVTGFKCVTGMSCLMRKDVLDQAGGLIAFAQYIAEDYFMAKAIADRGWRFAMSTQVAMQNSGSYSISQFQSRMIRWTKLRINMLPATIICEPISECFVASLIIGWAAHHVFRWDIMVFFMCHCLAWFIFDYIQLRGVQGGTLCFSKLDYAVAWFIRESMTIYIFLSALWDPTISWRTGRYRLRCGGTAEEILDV
# Assay: GCS enzymatic assay (MDCK cell lysate, NBD-ceramide to glucosylceramide, LC/MS)
# Assay type: biochemical, canine
# Details: Table 2; class symbols A, B, C; the table does not say which of the assays; read-out: Data Range (IC50 values)
# Method in brief: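 Dog MDCK cell lysate served as enzyme source, with NBD-ceramide turned over to glucosylceramide and 0.1% DMSO as mock control. The reaction was stopped with acetonitrile. Both lipids were quantified by LC/MS/MS in ESI positive MRM mode against a tolbutamide internal standard, giving IC50 or percent inhibition.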
row,IC50,Structure (SMILES)
1,1 to 30 nM,"Cn1ncc2ccc(N3CCC(C(=O)N[C@H](CN4CCCC4)[C@H](O)c4ccc5c(c4)OCCO5)C3)cc21 (stereo partly drawn) [Compound 61C, N-((1R,2R)-1-(2,3-dihydrobenzo[b][1,4]dioxin-6-yl)-1-hydroxy-3-(pyrrolidin-1-yl)propan-2-yl)-1-(1-methyl-1H-indazol-6-yl)pyrrolidine-3-carboxamide]"
2,1 to 30 nM,"O=C(N[C@H](CN1CCC1)[C@H](O)c1ccc(OC2CC2)c(Cl)c1)[C@@H]1CCN(c2ccc3ccccc3c2)C1 [Compound 86, (R)-N-((1R,2R)-3-(azetidin-1-yl)-1-(3-chloro-4-cyclopropoxyphenyl)-1-hydroxypropan-2-yl)-1-(naphthalen-2-yl)pyrrolidine-3-carboxamide]"
3,1 to 30 nM,"CC(C)Oc1ccc([C@@H](O)[C@@H](CN2CCCC2)NC(=O)[C@@H]2CCN(c3ccc(Cl)cc3)C2)cc1Cl [Compound 23, (R)-N-((1R,2R)-1-(3-chloro-4-isopropoxyphenyl)-1-hydroxy-3-(pyrrolidin-1-yl)propan-2-yl)-1-(4-chlorophenyl)pyrrolidine-3-carboxamide]"
4,1 to 30 nM,"O=C(N[C@H](CN1CCC1)[C@H](O)c1cc(F)c2c(c1)OCCO2)[C@@H]1CCN(c2ccc3cc(Cl)ccc3c2)C1 [Compound 89, (R)-N-((1R,2R)-3-(azetidin-1-yl)-1-(8-fluoro-2,3-dihydrobenzo[b][1,4]dioxin-6-yl)-1-hydroxypropan-2-yl)-1-(6-chloronaphthalen-2-yl)pyrrolidine-3-carboxamide]"
5,1 to 30 nM,"O=C(N[C@H](CN1CCCC1)[C@H](O)c1cc(F)c2c(c1)OCCO2)[C@@H]1CCN(c2ccc3c(c2)CCCC3)C1 [Compound 93, (R)-N-((1R,2R)-1-(8-fluoro-2,3-dihydrobenzo[b][1,4]dioxin-6-yl)-1-hydroxy-3-(pyrrolidin-1-yl)propan-2-yl)-1-(5,6,7,8-tetrahydronaphthalen-2-yl)pyrrolidine-3-carboxamide]"
6,1 to 30 nM,"Cn1ncc2ccc(N3CC[C@H](C(=O)N[C@H](CN4CCCC4)[C@H](O)c4ccc5c(c4)OCCO5)C3)cc21 [Compound 61D, (S)-N-((1R,2R)-1-(2,3-dihydrobenzo[b][1,4]dioxin-6-yl)-1-hydroxy-3-(pyrrolidin-1-yl)propan-2-yl)-1-(1-methyl-1H-indazol-6-yl)pyrrolidine-3-carboxamide]"
7,1 to 30 nM,"O=C(N[C@H](CN1CCC1)[C@H](O)c1ccc2c(c1)OCCO2)[C@@H]1CCN(c2ccc3cc(F)ccc3c2)C1 [Compound 79, (R)-N-((1R,2R)-3-(azetidin-1-yl)-1-(2,3-dihydrobenzo[b][1,4]dioxin-6-yl)-1-hydroxypropan-2-yl)-1-(6-fluoronaphthalen-2-yl)pyrrolidine-3-carboxamide]"
8,1 to 30 nM,"O=C(N[C@H](CN1CCCC1)[C@H](O)c1ccc(OC2CC2)c(Cl)c1)C1CCN(c2ccc(Cl)cc2)C1 (stereo in doubt) [Compound 3, (S)-N-((1R,2R)-1-(3-chloro-4-cyclopropoxyphenyl)-1-hydroxy-3-(pyrrolidin-1-yl)propan-2-yl)-1-(4-chlorophenyl)pyrrolidine-3-carboxamide]"
9,1 to 30 nM,"O=C(N[C@H](CN1CCCC1)[C@H](O)c1cc(F)c2c(c1)OCCO2)[C@@H]1CCN(c2ccc(F)cc2)C1 [Compound 35, (R)-N-((1R,2R)-1-(8-fluoro-2,3-dihydrobenzo[b][1,4]dioxin-6-yl)-1-hydroxy-3-(pyrrolidin-1-yl)propan-2-yl)-1-(4-fluorophenyl)pyrrolidine-3-carboxamide]"

# Same assay, conditions: Table 2; class symbols D, E, F, NA (not active); the table does not say which of the assays
row,Data Range (% inhibition),Structure (SMILES)
1,E (50-74% (or less than 75%)),"O=C(N[C@H](CN1CCCC1)[C@H](O)c1ccc2c(c1)OCCO2)[C@@H]1CCN(c2nccs2)C1 [Compound 17, (R)-N-((1R,2R)-1-(2,3-dihydrobenzo[b][1,4]dioxin-6-yl)-1-hydroxy-3-(pyrrolidin-1-yl)propan-2-yl)-1-(thiazol-2-yl)pyrrolidine-3-carboxamide]"
2,F (1-49% (or less than 50%)),"O=C(N[C@H](CN1CCCC1)[C@H](O)c1ccc2c(c1)OCCO2)[C@H]1CCN(c2ccc(OC3CC3)c(Cl)c2)C1 [Compound 20E, (S)-1-(3-chloro-4-cyclopropoxyphenyl)-N-((1R,2R)-1-(2,3-dihydrobenzo[b][1,4]dioxin-6-yl)-1-hydroxy-3-(pyrrolidin-1-yl)propan-2-yl)pyrrolidine-3-carboxamide]"
3,F (1-49% (or less than 50%)),"O=C(N[C@H](CN1CCCC1)[C@H](O)c1ccc2c(c1)OCCO2)[C@@H]1CCN(c2cnc3cccnc3c2)C1 [Compound 90, (R)-N-((1R,2R)-1-(2,3-dihydrobenzo[b][1,4]dioxin-6-yl)-1-hydroxy-3-(pyrrolidin-1-yl)propan-2-yl)-1-(1,5-naphthyridin-3-yl)pyrrolidine-3-carboxamide]"
4,F (1-49% (or less than 50%)),"O=C(N[C@H](CN1CCC1)[C@H](O)c1cc(F)c2c(c1)OCCO2)[C@H]1CCN(c2ccc(Cl)cc2)C1 [Compound 25B, (S)-N-((1R,2R)-3-(azetidin-1-yl)-1-(8-fluoro-2,3-dihydrobenzo[b][1,4]dioxin-6-yl)-1-hydroxypropan-2-yl)-1-(4-chlorophenyl)pyrrolidine-3-carboxamide]"
5,D (75-100%),"O=C(N[C@H](CN1CCCC1)[C@H](O)c1ccc(N2CCOCC2)c(Cl)c1)[C@@H]1CCN(c2ccc(Cl)cc2)C1 [Compound 74, (R)-N-((1R,2R)-1-(3-chloro-4-morpholinophenyl)-1-hydroxy-3-(pyrrolidin-1-yl)propan-2-yl)-1-(4-chlorophenyl)pyrrolidine-3-carboxamide]"
6,D (75-100%),"O=C(N[C@H](CN1CCCC1)[C@H](O)c1ccc(OC2CC2)c(Cl)c1)[C@H]1CCN(c2cccc(Oc3ccccn3)c2)C1 [Compound 75E, (S)-N-((1R,2R)-1-(3-chloro-4-cyclopropoxyphenyl)-1-hydroxy-3-(pyrrolidin-1-yl)propan-2-yl)-1-(3-(pyridin-2-yloxy)phenyl)pyrrolidine-3-carboxamide]"
7,D (75-100%),"O=C(N[C@H](CN1CCCC1)[C@H](O)c1ccc2c(c1)OCCO2)C1CCN(c2ccc(Cl)c(Cl)c2)C1 (stereo in doubt) [Compound 8, (R)-1-(3,4-dichlorophenyl)-N-((1R,2R)-1-(2,3-dihydrobenzo[b][1,4]dioxin-6-yl)-1-hydroxy-3-(pyrrolidin-1-yl)propan-2-yl)pyrrolidine-3-carboxamide]"
8,E (50-74% (or less than 75%)),"O=C(N[C@H](CN1CCC1)[C@H](O)c1cc(F)c2c(c1)OCCO2)[C@H]1CCN(c2ccc3cc(Cl)ccc3c2)C1 [Compound 89G, (S)-N-((1R,2R)-3-(azetidin-1-yl)-1-(8-fluoro-2,3-dihydrobenzo[b][1,4]dioxin-6-yl)-1-hydroxypropan-2-yl)-1-(6-chloronaphthalen-2-yl)pyrrolidine-3-carboxamide]"
9,F (1-49% (or less than 50%)),"O=C(N[C@H](CN1CCCC1)[C@H](O)c1ccc2c(c1)OCCO2)[C@@H]1CCN(c2ccnc(OC3CC3)c2)C1 [Compound 56, (R)-1-(2-cyclopropoxypyridin-4-yl)-N-((1R,2R)-1-(2,3-dihydrobenzo[b][1,4]dioxin-6-yl)-1-hydroxy-3-(pyrrolidin-1-yl)propan-2-yl)pyrrolidine-3-carboxamide]"
10,F (1-49% (or less than 50%)),"O=C(N[C@H](CN1CCCC1)[C@H](O)c1ccc(OC2CCOCC2)c(Cl)c1)[C@H]1CCN(c2ccc(Cl)cc2)C1 [Compound 45A, (S)-N-((1R,2R)-1-(3-chloro-4-((tetrahydro-2H-pyran-4-yl)oxy)phenyl)-1-hydroxy-3-(pyrrolidin-1-yl)propan-2-yl)-1-(4-chlorophenyl)pyrrolidine-3-carboxamide]"
11,F (1-49% (or less than 50%)),"O=C(N[C@H](CN1CCCC1)[C@H](O)c1ccc2c(c1)OCCO2)C1CCN(c2ccnc(OC3CC3)c2)C1 (stereo partly drawn) [Compound 56D, 1-(2-cyclopropoxypyridin-4-yl)-N-((1R,2R)-1-(2,3-dihydrobenzo[b][1,4]dioxin-6-yl)-1-hydroxy-3-(pyrrolidin-1-yl)propan-2-yl)pyrrolidine-3-carboxamide]"

row,Structure (SMILES),Data Range (% inhibition)
1,"Cc1cc(N2CC[C@H](C(=O)N[C@H](CN3CCCC3)[C@H](O)c3ccc4c(c3)OCCO4)C2)cc(C)n1 [Compound 82E, (S)-N-((1R,2R)-1-(2,3-dihydrobenzo[b][1,4]dioxin-6-yl)-1-hydroxy-3-(pyrrolidin-1-yl)propan-2-yl)-1-(2,6-dimethylpyridin-4-yl)pyrrolidine-3-carboxamide]",NA (not active—a negative value was generated for % inhibition)
2,"O=C(N[C@H](CN1CCCC1)[C@H](O)c1ccc2c(c1)OCCO2)C1CCN(C2CCCC2)C1 (stereo partly drawn) [Compound 11, 1-cyclopentyl-N-((1R,2R)-1-(2,3-dihydrobenzo[b][1,4]dioxin-6-yl)-1-hydroxy-3-(pyrrolidin-1-yl)propan-2-yl)pyrrolidine-3-carboxamide]",NA (not active—a negative value was generated for % inhibition)
3,"O=C(N[C@H](CN1CCCC1)[C@H](O)c1ccc(OC2COC2)nc1)[C@@H]1CCN(c2ccc(Cl)cc2)C1 [Compound 62, (R)-1-(4-chlorophenyl)-N-((1R,2R)-1-hydroxy-1-(6-(oxetan-3-yloxy)pyridin-3-yl)-3-(pyrrolidin-1-yl)propan-2-yl)pyrrolidine-3-carboxamide]",NA (not active—a negative value was generated for % inhibition)
